Results reported in patent US9113629B2, “4-amino-6-(4-substituted-phenyl)-picolinates and 6-amino-2-(4-substituted-phenyl)-pyrimidine-4-carboxylates and their use as herbicides” (DOW AGROSCIENCES LLC, priority 2013, dated 2015).
Like-named read-outs stand apart in the source and are kept apart here.

How the values were obtained:
[1] = system: Key Broadleaf Weed and Crop Species; experiment: Post-emergent Test II herbicidal activity (Table 5); type: in vivo; conditions: post-emergence, 336 h, post-emergent, 14 days after application; for pest or weed control at 70 g/ha: 70 g ai/ha; for pest or weed control at 140 g/ha: 140 g ai/ha
Summary of the method: (§1)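 Foliar application at 187 L/ha to greenhouse-grown seedlings (first or second true leaf); subirrigation thereafter. Visual 0–100% injury at 14 d relative to untreated plants.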

[2] = system: Key Grass and Sedge Weeds as well as Grass Crops; experiment: Post-emergent Test II herbicidal activity (Table 6); type: in vivo; conditions: post-emergence, 336 h; for pest or weed control at 70 g/ha: application rate 70 g ai/ha; for pest or weed control at 140 g/ha: application rate 140 g ai/ha
Summary of the method: as §1

[3] = ABUTH: velvetleaf (Abutilon theophrasti), read-out: Visual Growth Reduction (%) 14 Days After Application ABUTH
[4] = AMARE: redroot pigweed (Amaranthus retroflexus), read-out: Visual Growth Reduction (%) 14 Days After Application AMARE
[5] = BRSNN: oilseed-rape, canola (Brassica napus), read-out: Visual Growth Reduction (%) 14 Days After Application BRSNN
[6] = CHEAL: lambsquarters (Chenopodium album), read-out: Visual Growth Reduction (%) 14 Days After Application CHEAL
[7] = EPHHL: wild poinsettia (Euphorbia heterophylla), read-out: Visual Growth Reduction (%) 14 Days After Application EPHHL
[8] = HELAN: sunflower (Helianthus annuus), read-out: Visual Growth Reduction (%) 14 Days After Application HELAN
[9] = VIOTR: wild pansy (Viola tricolor), read-out: Visual Growth Reduction (%) 14 Days After Application VIOTR
[10] = CYPES: yellow nutsedge (Cyperus esculentus), read-out: Visual Growth Reduction (%) 14 Days After Application, CYPES
[11] = DIGSA: crabgrass (Digitaria sanguinalis), read-out: Visual Growth Reduction (%) 14 Days After Application, DIGSA
[12] = ECHCG: barnyardgrass (Echinochloa crus-galli), read-out: Visual Growth Reduction (%) 14 Days After Application, ECHCG
[13] = ORYSA: rice (Oryza sativa), read-out: Visual Growth Reduction (%) 14 Days After Application, ORYSA
[14] = SETFA: giant foxtail (Setaria faberi), read-out: Visual Growth Reduction (%) 14 Days After Application, SETFA
[15] = SORVU: grain sorghum (Sorghum vulgare), read-out: Visual Growth Reduction (%) 14 Days After Application, SORVU
[16] = TRZSS (wheat, Triticum aestivum), read-out: Visual Growth Reduction (%) 14 Days After Application, TRZSS
[17] = ZEAMX: maize, corn (Zea mays), read-out: Visual Growth Reduction (%) 14 Days After Application, ZEAMX

N#Cc1ccc(-c2nc(C(=O)O)c(Cl)c(N)c2F)c(F)c1 [Compound 65, 4-amino-3-chloro-6-(4-cyano-2-fluorophenyl)-5-fluoropicolinic acid]
pest or weed control at 70 g/ha [1, 3]: 0 to 29%
pest or weed control at 140 g/ha [1, 3]: 0 to 29%
pest or weed control at 70 g/ha [1, 4]: 95 to 100%
pest or weed control at 140 g/ha [1, 4]: 95 to 100%
pest or weed control at 70 g/ha [1, 5]: 0 to 29%
pest or weed control at 140 g/ha [1, 5]: 30 to 44%
pest or weed control at 70 g/ha [1, 6]: 60 to 74%
pest or weed control at 140 g/ha [1, 6]: 75 to 84%
pest or weed control at 70 g/ha [1, 7]: 95 to 100%
pest or weed control at 140 g/ha [1, 7]: 95 to 100%
pest or weed control at 70 g/ha [1, 8]: 85 to 94%
pest or weed control at 140 g/ha [1, 8]: 95 to 100%
pest or weed control at 70 g/ha [1, 9]: 0 to 29%
pest or weed control at 140 g/ha [1, 9]: 30 to 44%
pest or weed control at 70 g/ha [2, 10]: 0 to 29%
pest or weed control at 140 g/ha [2, 10]: 0 to 29%
pest or weed control at 70 g/ha [2, 11]: 0 to 29%
pest or weed control at 140 g/ha [2, 11]: 0 to 29%
pest or weed control at 70 g/ha [2, 12]: 0 to 29%
pest or weed control at 140 g/ha [2, 12]: 0 to 29%
pest or weed control at 70 g/ha [2, 13]: 0 to 29%
pest or weed control at 140 g/ha [2, 13]: 0 to 29%
pest or weed control at 70 g/ha [2, 14]: 0 to 29%
pest or weed control at 140 g/ha [2, 14]: 0 to 29%
pest or weed control at 70 g/ha [2, 15]: 0 to 29%
pest or weed control at 140 g/ha [2, 15]: 0 to 29%
pest or weed control at 70 g/ha [2, 16]: 0 to 29%
pest or weed control at 140 g/ha [2, 16]: 0 to 29%
pest or weed control at 70 g/ha [2, 17]: 0 to 29%
pest or weed control at 140 g/ha [2, 17]: 0 to 29%
